Legend:
velvetleaf = assay: Test B pre/postemergence velvetleaf; type: in vivo, Abutilon theophrasti
How it was run: (§1)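 Test chemicals in a non-phytotoxic solvent mixture with surfactant were sprayed preemergence onto planted seeds and postemergence onto plants 2 to 18 cm tall (1- to 4-leaf stage). After twelve to sixteen days in a greenhouse, injury was visually rated against untreated controls from 0 (no effect) to 10 (complete control).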

wild oat = assay: Test E wild oat; type: in vivo, Avena fatua; conditions: Preemergence
Italian ryegrass = assay: Test E Italian ryegrass; type: in vivo, Lolium multiflorum; conditions: Preemergence
winter wheat [1] = assay: Test E winter wheat; type: in vivo, Triticum aestivum; conditions: Postemergence
How it was run: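 Plants were grown under normal greenhouse practice; for postemergence, in sandy loam soil mixed 60:40 with potting mix, treated at the 1- to 4-leaf stage. The compound was in a non-phytotoxic solvent carrying a surfactant. After roughly 21 to 28 days plants were scored visually against untreated plants.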

green foxtail = assay: Test E green foxtail; type: in vivo, Setaria viridis; conditions: Preemergence
winter barley = assay: Test E winter barley; type: in vivo, Hordeum vulgare; conditions: Preemergence
blackgrass = assay: Test E blackgrass; type: in vivo, Alopecurus myosuroides; conditions: Preemergence
winter wheat [2] = assay: Test E winter wheat; type: in vivo, Triticum aestivum; conditions: Preemergence
soybean = assay: Test B pre/postemergence soybean; type: in vivo, Glycine max
How it was run: as §1

smallflower flatsedge = assay: Test B flood test smallflower flatsedge; type: in vivo, Cyperus difformis
How it was run: (§2)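 Plants were grown to the 2-leaf stage before treatment with test chemical, then held in a greenhouse for twelve to sixteen days. Injury was visually rated against untreated controls on a 0–10 scale, where 0 is no effect and 10 is complete control.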

duck salad = assay: Test B flood test duck salad; type: in vivo, Heteranthera limosa
How it was run: as §2

[3] = Postemergence, Rate 125 g/ha, scale 0 to 10, 0 is no effect, 10 is complete control
[4] = Preemergence, Rate 62 g/ha, scale of 0 to 10 where 0 is no effect and 10 is complete control
[5] = Preemergence, Rate 250 g/ha, scale of 0 to 10 where 0 is no effect and 10 is complete control
[6] = Preemergence, Rate 500 g/ha, scale of 0 to 10 where 0 is no effect and 10 is complete control
[7] = Rate 62 g/ha, Postemergence, scale of 0 to 10 where 0 is no effect and 10 is complete control
[8] = Rate 500 g/ha, Postemergence, scale 0 to 10, 0 no effect, 10 complete control
[9] = Rate 500 g/ha, 0 to 100 scale (0 no effect, 100 complete control)
[10] = Rate 1000 g/ha, 0 to 100 scale, 0 no effect, 100 complete control
[11] = Rate 1000 g/ha, 0 to 100 scale where 0 is no effect and 100 is complete control
[12] = Rate 500 g/ha, 0 to 100 scale, 0 is no effect, 100 is complete control
[13] = Rate 62 g/ha, headed Pre-emergence (flood test species), scale 0 to 10 (0 no effect, 10 complete control)
[14] = Rate 125 g/ha, Pre-emergence, flood test species, scale 0 to 10 where 0 is no effect and 10 is complete control
[15] = Rate 250 g/ha, Pre-emergence, flood-test species, scale 0 to 10, 0 is no effect, 10 is complete control
[16] = Rate 500 g/ha, Pre-emergence, flood test species, scale 0 to 10 (0 no effect, 10 complete control)
[17] = Preemergence, Rate 31 g/ha, visual rating, scale 0 to 10 (0 no effect, 10 complete control)
[18] = Rate 62 g/ha, Postemergence, scale 0 to 10, 0 no effect, 10 complete control
[19] = Rate 125 g/ha, Postemergence, scale of 0 to 10 where 0 is no effect and 10 is complete control
[20] = Rate 125 g/ha, Preemergence, scale of 0 to 10 where 0 is no effect and 10 is complete control
[21] = Rate 250 g/ha, Postemergence, scale of 0 to 10 where 0 is no effect and 10 is complete control
[22] = Rate 125 g/ha, 0 to 100 scale (0 no effect, 100 complete control)
[23] = Rate 125 g/ha, 0 to 100 scale, 0 is no effect, 100 is complete control
[24] = Rate 250 g/ha, 0 to 100 scale where 0 is no effect and 100 is complete control
[25] = Rate 31 g/ha, Pre-emergence section (flood test species), scale 0 to 10
[26] = Rate 500 g/ha, 0 to 100 scale where 0 is no effect and 100 is complete control

SMILES: CC(C)N(C(=O)n1oc(=O)n(C2CCCCCC2)c1=O)c1ccc(F)cc1 [Compound 340]
- Plant response rating, Velvetleaf (velvetleaf; [3]): 0
- Velvetleaf plant response rating (velvetleaf; [4]): 0
- Velvetleaf plant response rating (0 to 10 scale) (velvetleaf; Preemergence, Rate 125 g/ha): 0
- Velvetleaf plant response rating (velvetleaf; [5]): 0
- Velvetleaf plant response rating (velvetleaf; [6]): 2
- Velvetleaf plant response rating (velvetleaf; [7]): 0
- Plant response rating, Velvetleaf (velvetleaf; [8]): 3
- Plant response rating, Wild oat (wild oat; Rate 250 g/ha, 0 to 100 scale): 50
- Plant response rating, Wild oat (wild oat; [9]): 50
- Plant response rating, Wild oat (wild oat; [10]): 60
- Plant response rating, I. Ryegrass (Italian ryegrass; Rate 250 g/ha, 0 to 100 scale): 55
- Plant response rating, I. Ryegrass (Italian ryegrass; [9]): 60
- Plant response rating, I. Ryegrass (Italian ryegrass; [10]): 65
- Plant response rating, Wheat (winter) (winter wheat [1]; Rate 250 g/ha, 0 to 100 scale, 0 is no effect, 100 is complete control): 30
- Plant response rating, Wheat (winter) (winter wheat [1]; [11]): 60
- Plant response rating, Wheat (winter) (winter wheat [1]; [12]): 55
- Plant response rating, Green foxtail (green foxtail; Rate 250 g/ha, 0 to 100 scale): 30
- Plant response rating, Green foxtail (green foxtail; [9]): 60
- Plant response rating, Green foxtail (green foxtail; [10]): 100
- Plant response rating, Barley (winter) (winter barley; Rate 250 g/ha, 0 to 100 scale, 0 no effect, 100 complete control): 50
- Plant response rating, Barley (winter) (winter barley; [9]): 40
- Plant response rating, Barley (winter) (winter barley; [10]): 50
- Plant response rating, Blackgrass (blackgrass; Rate 250 g/ha, 0 to 100 scale): 50
- Plant response rating, Blackgrass (blackgrass; [9]): 60
- Plant response rating, Blackgrass (blackgrass; [10]): 85
- Plant response rating, Wheat (winter) (winter wheat [2]; Rate 250 g/ha, 0 to 100 scale): 40
- Plant response rating, Wheat (winter) (winter wheat [2]; [9]): 50
- Plant response rating, Wheat (winter) (winter wheat [2]; [10]): 60
- Plant response rating, Soybean (soybean; [3]): 2
- Soybean plant response rating (soybean; [4]): 0
- Soybean plant response rating (0 to 10 scale) (soybean; Preemergence, Rate 125 g/ha): 0
- Soybean plant response rating (soybean; [5]): 0
- Soybean plant response rating (soybean; [6]): 0
- Soybean plant response rating (soybean; [7]): 1
- Plant response rating, Soybean (soybean; [8]): 3
- S. Flatsedge plant response rating (smallflower flatsedge; [13]): 0
- S. Flatsedge plant response rating (smallflower flatsedge; [14]): 0
- S. Flatsedge plant response rating (smallflower flatsedge; [15]): 2
- S. Flatsedge plant response rating (smallflower flatsedge; [16]): 9
- Ducksalad plant response rating (duck salad; [13]): 0
- Ducksalad plant response rating (duck salad; [14]): 0
- Ducksalad plant response rating (duck salad; [15]): 0
- Ducksalad plant response rating (duck salad; [16]): 5

SMILES: CC(Cl)=CCn1c(=O)on(C(=O)N(c2ccc(F)cc2)C(C)C)c1=O [Compound 285]
- Velvetleaf plant response rating (velvetleaf; [17]): 0
- Velvetleaf plant response rating (velvetleaf; [4]): 0
- Velvetleaf plant response rating (velvetleaf; [5]): 3
- Velvetleaf plant response rating (velvetleaf; [18]): 0
- Velvetleaf plant response rating (velvetleaf; [19]): 0
- Velvetleaf plant response rating (velvetleaf; [20]): 2
- Plant response rating, Velvetleaf (velvetleaf; [21]): 1
- Plant response rating, Wild oat (wild oat; [22]): 10
- Plant response rating, Wild oat (wild oat; [9]): 20
- Plant response rating, Wild oat (wild oat; [10]): 40
- Plant response rating, I. Ryegrass (Italian ryegrass; [22]): 20
- Plant response rating, I. Ryegrass (Italian ryegrass; [9]): 70
- Plant response rating, I. Ryegrass (Italian ryegrass; [10]): 70
- Plant response rating, Wheat (winter) (winter wheat [1]; [23]): 20
- Plant response rating, Wheat (winter) (winter wheat [1]; [11]): 30
- Wheat (winter) plant response rating (winter wheat [1]; [24]): 20
- Plant response rating, Wheat (winter) (winter wheat [1]; [12]): 40
- Plant response rating, Green foxtail (green foxtail; [22]): 20
- Plant response rating, Green foxtail (green foxtail; [9]): 60
- Plant response rating, Green foxtail (green foxtail; [10]): 65
- Plant response rating, Barley (winter) (winter barley; [22]): 0
- Plant response rating, Barley (winter) (winter barley; [9]): 10
- Plant response rating, Barley (winter) (winter barley; [10]): 20
- Plant response rating, Blackgrass (blackgrass; [22]): 20
- Plant response rating, Blackgrass (blackgrass; [9]): 55
- Plant response rating, Blackgrass (blackgrass; [10]): 70
- Plant response rating, Wheat (winter) (winter wheat [2]; [22]): 30
- Plant response rating, Wheat (winter) (winter wheat [2]; [9]): 25
- Plant response rating, Wheat (winter) (winter wheat [2]; [10]): 50
- Soybean plant response rating (soybean; [17]): 0
- Soybean plant response rating (soybean; [4]): 0
- Soybean plant response rating (soybean; [5]): 0
- Soybean plant response rating (soybean; [18]): 2
- Soybean plant response rating (soybean; [19]): 2
- Soybean plant response rating (soybean; [20]): 0
- Plant response rating, Soybean (soybean; [21]): 3
- S. Flatsedge plant response rating (smallflower flatsedge; [25]): 0
- S. Flatsedge plant response rating (smallflower flatsedge; [13]): 0
- S. Flatsedge plant response rating (smallflower flatsedge; [14]): 0
- S. Flatsedge plant response rating (smallflower flatsedge; [15]): 0
- Ducksalad plant response rating (duck salad; [25]): 0
- Ducksalad plant response rating (duck salad; [13]): 0
- Ducksalad plant response rating (duck salad; [14]): 0
- Ducksalad plant response rating (duck salad; [15]): 0

SMILES: CC(C)N(C(=O)n1oc(=O)n(CC(C)(C)C)c1=O)c1ccccc1 [Compound 276]
- Velvetleaf plant response rating (velvetleaf; [4]): 0
- Velvetleaf plant response rating (velvetleaf; [5]): 0
- Plant response rating, Velvetleaf (velvetleaf; [6]): 3
- Velvetleaf plant response rating (velvetleaf; [19]): 0
- Velvetleaf plant response rating (velvetleaf; [20]): 0
- Plant response rating, Velvetleaf (velvetleaf; [21]): 0
- Velvetleaf plant response rating (velvetleaf; [8]): 0
- Plant response rating, Wild oat (wild oat; [22]): 50
- Wild oat plant response rating (0 to 100 scale) (wild oat; Rate 250 g/ha): 60
- Plant response rating, Wild oat (wild oat; [26]): 60
- Plant response rating, I. Ryegrass (Italian ryegrass; [22]): 30
- I. Ryegrass plant response rating (0 to 100 scale) (Italian ryegrass; Rate 250 g/ha): 60
- Plant response rating, I. Ryegrass (Italian ryegrass; [26]): 50
- Plant response rating, Wheat (winter) (winter wheat [1]; [23]): 10
- Wheat (winter) plant response rating (winter wheat [1]; [24]): 10
- Plant response rating, Wheat (winter) (winter wheat [1]; [12]): 20
- Plant response rating, Green foxtail (green foxtail; [22]): 60
- Green foxtail plant response rating (0 to 100 scale) (green foxtail; Rate 250 g/ha): 100
- Plant response rating, Green foxtail (green foxtail; [26]): 98
- Plant response rating, Barley (winter) (winter barley; [22]): 50
- Barley (winter) plant response rating (0 to 100 scale) (winter barley; Rate 250 g/ha): 30
- Plant response rating, Barley (winter) (winter barley; [26]): 50
- Plant response rating, Blackgrass (blackgrass; [22]): 30
- Blackgrass plant response rating (0 to 100 scale) (blackgrass; Rate 250 g/ha): 50
- Plant response rating, Blackgrass (blackgrass; [26]): 50
- Plant response rating, Wheat (winter) (winter wheat [2]; [22]): 20
- Wheat (winter) plant response rating (0 to 100 scale) (winter wheat [2]; Rate 250 g/ha): 30
- Plant response rating, Wheat (winter) (winter wheat [2]; [26]): 50
- Soybean plant response rating (soybean; [4]): 0
- Soybean plant response rating (soybean; [5]): 0
- Plant response rating, Soybean (soybean; [6]): 0
- Soybean plant response rating (soybean; [19]): 5
- Soybean plant response rating (soybean; [20]): 0
- Plant response rating, Soybean (soybean; [21]): 6
- Soybean plant response rating (soybean; [8]): 7
- S. Flatsedge plant response rating (smallflower flatsedge; [13]): 0
- S. Flatsedge plant response rating (smallflower flatsedge; [14]): 0
- S. Flatsedge plant response rating (smallflower flatsedge; [15]): 0
- S. Flatsedge plant response rating (smallflower flatsedge; [16]): 0
- Ducksalad plant response rating (duck salad; [13]): 0
- Ducksalad plant response rating (duck salad; [14]): 0
- Ducksalad plant response rating (duck salad; [15]): 0
- Ducksalad plant response rating (duck salad; [16]): 0
